The assay relates to UGT72B23. The experiment in a line: UDP-Glo glycosyltransferase assay. The assay is classed as biochemical, Camellia sinensis. The note with it: read-out: apparent Km; UDP-glucose co-substrate, pH 7.5, 40 °C.

Our source for the Km values is article PMC9616531 (Plant Biotechnology Journal, 2022).

Broadly, the Km is the substrate concentration at which the rate is half of its maximum. Regarding `O=C(O[C@@H]1Cc2c(O)cc(O)cc2O[C@@H]1c1ccc(O)c(O)c1)c1cc(O)c(O)c(O)c1` [epicatechin gallate], the Km was 31.2 µM.

With `O=C(O[C@@H]1Cc2c(O)cc(O)cc2O[C@@H]1c1cc(O)c(O)c(O)c1)c1cc(O)c(O)c(O)c1` [epigallocatechin gallate], the Km stood at 27.9 µM.
